The text below walks through data of US20260309717A1, “PROXIMITY INDUCING SYSTEM AND USES THEREOF” (SORBONNE UNIVERSITE, priority 2022, published 2026).

In experiment [1] the target is T1, mCherry-^FIREtag / ^FIREmate-ECFP-Giantin (Halorhodospira halophila, UniProt P16113, A30V/C69G/D97P/F96I, form not given/G21E/G25R/K17N/M100R/M109L/Q41L/Q99S/S72T/T101G/V83A/Y94W/Y98T).
T1 construct: FIREmate-ECFP-Giantin(3131-3259) and mCherry-FIREtag in HeLa cells
T1 sequence (P16113 1-114 A30V/C69G/D97P/F96I/G21E/G25R/K17N/M100R/M109L/Q41L/Q99S/S72T/T101G/V83A/Y94W/Y98T): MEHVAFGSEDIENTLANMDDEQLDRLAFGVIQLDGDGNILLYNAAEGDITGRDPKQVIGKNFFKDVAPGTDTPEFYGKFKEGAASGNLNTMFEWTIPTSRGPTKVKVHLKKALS
Nature of the experiment: Reversibility of the ternary assembly (washout), time-lapse spinning-disk confocal microscopy, HeLa cells. The format is cell-based. To be noted: 10 μM. On the procedure:
HeLa cells co-expressing mCherry-^FIREtag and ^FIREmate-ECFP-Giantin were treated with 10 μM HBR-2,5DM (match1), washed with HBR-2,5DM-free medium and then treated with 10 μM HBIR-3M. Cells were imaged by time-lapse spinning-disk confocal microscopy. FIGS. 9A-D are sets of representative confocal micrographs of untreated cells (9A), cells after addition of HBR-2,5DM (match1) (9B), cells after washout of HBR-2,5DM (match1) (9C), and cells after addition of HBIR-3M (9D). (mCherry: ex/em 561/606-675 nm; FIRE: ex/em 488/508-570 nm). Scale bars are 10 μm.
To test whether formation of the fluorescent ternary assembly could be reversed though removal of the fluorogen, the fusion proteins mCherry-^FIREtag (red fluorescence) and ^FIREmate-ECFP-Giantin (blue fluorescence) were co-expressed in Hela cells (FIG. 9A). Formation of a fluorescent ternary assembly between ^FIREtag, ^FIREmate and HBR-2,5DM was induced by addition of 10 μM of HBR-2,5DM (FIG. 9B). […] The ability to reverse the fluorescence ternary assembly at will allowed to induce repeated catch and release cycles through sequential addition and removal of HBR-2,5DM. The ability to control protein proximity through addition and removal of a molecular inducer of proximity is unprecedented and opens great prospect to control the proximity of two proteins with high temporal resolution.

The test system of experiment [2] is mCherry-FKBP-^FIREtag / TOM20-^FIREmate / FRB-ECFP-Giantin. Kind of experiment: Orthogonality with FRB-FKBP-rapamycin CIP system, confocal microscopy, HeLa cells. The experiment is classed as cell-based. To be noted: simultaneous addition of 10 μM HBR-2,5DM and 500 nM rapamycin. On the procedure:
FIG. 12A is a representation of the experimental design wherein HeLa cells co-expressing mCherry-FKBP-^FIREtag, TOM20-^FIREmate and FRB-ECFP-Giantin were treated with 10 μM of match (i.e., HBR-2,5DM) and 500 nM rapamycin, and imaged by time-lapse confocal microscopy. FIG. 12B is a set of representative confocal micrographs of cells before and after addition of HBR-2,5DM (match1) and rapamycin (rap) (mCherry: ex/em 561/606-675 nm; FIRE: ex/em 488/508-570 nm; ECFP: ex/em 445/455-499 nm). Scale bars are 20 μm.
The confocal micrographs were acquired on a Zeiss LSM 980 Laser Scanning Microscope equipped with a plan apochromat 63x/1.4 NA oil immersion objective. ZEN software was used to collect the data. The images were analyzed using Icy (2.4.0.0) and Fiji (Image J). In short, to track fluorescence signal in a specific organelle, a ROI (region of interest) was determined by masking the signal in the ECFP (Enhanced Cyan Fluorescent Protein) channel with the plug-in HK-means with the following parameters: intensity class equals 100, minimum object size (pixels or px) equals 500, maximum object size (px) equals 1500-3000. The signal intensity of the ROI was tracked over time for each channel by using plug-in Active Contours. The background signal was subtracted. Data were processed using GraphPad Prism v9.3.0. […]

`Cc1cc(/C=C2\SC(=S)NC2=O)c(C)cc1O` [HBR-2,5DM, (Z)-5-(4-hydroxy-2,5-dimethylbenzylidene)-2-thioxo-1,3-thiazolidin-4-one]: the “dissociation of the fluorescent ternary assembly after washout” value in experiment [1] (then washing with HBR-2,5DM-free medium) was “rapid dissociation of the fluorescent ternary assembly”. For the same molecule, the “reversibility of the fluorescent ternary assembly” value in experiment [1] (then washout) is listed as “full reversibility”. Further, in experiment [2], the “translocation of mCherry-FKBP-^FIREtag” value is “triggered the translocation of mCherry-FKBP-^FIREtag to the Golgi apparatus and to the mitochondria”.
